# Experimental data reported in patent publication US20240018145A1, “[…]-DEPENDENT EN[…] TREATING OR […]” (priority 2020, published 2024).
# Tested on: FLU A (PR/8/34)
# Assay: Flu A Neuraminidase Antiviral Assay
# Type: cell-based
row,Structure (SMILES),EC50
1,"CC1(c2ccccn2)CCCC2N(CC(F)(F)F)C(=O)c3c(O)c(=O)ccn3N21 (single isomer, unassigned) [Compound 39A, 7-hydroxy-1-methyl-1-(pyridin-2-yl)-5-(2,2,2-trifluoroethyl)-1,2,3,4,4a,5-hexahydrodipyrido[1,2-b:2′,1′-f][1,2,4]triazine-6,8-dione]",> 8100 nM
2,"CC1(c2ccccn2)CCCC2N(CC(F)(F)F)C(=O)c3c(O)c(=O)ccn3N21 (single isomer, unassigned) [Compound 39B, 7-hydroxy-1-methyl-1-(pyridin-2-yl)-5-(2,2,2-trifluoroethyl)-1,2,3,4,4a,5-hexahydrodipyrido[1,2-b:2′,1′-f][1,2,4]triazine-6,8-dione]",10.1 nM
3,"CC1(c2ccccc2)CCCC2N(CC3COC3)C(=O)c3c(O)c(=O)ccn3N21 (single isomer, unassigned) [Compound 40A, 7-hydroxy-1-methyl-5-(oxetan-3-ylmethyl)-1-phenyl-1,2,3,4,4a,5-hexahydrodipyrido[1,2-b:2′,1′-f][1,2,4]triazine-6,8-dione]",14.4 nM
4,"CC1(c2ccccc2)CCCC2N(CC3COC3)C(=O)c3c(O)c(=O)ccn3N21 (single isomer, unassigned) [Compound 40B, 7-hydroxy-1-methyl-5-(oxetan-3-ylmethyl)-1-phenyl-1,2,3,4,4a,5-hexahydrodipyrido[1,2-b:2′,1′-f][1,2,4]triazine-6,8-dione]",> 8100 nM
5,"CC1(c2nccs2)CCCC2N(CC(F)(F)F)C(=O)c3c(O)c(=O)ccn3N21 (single isomer, unassigned) [Compound 41A, 7-hydroxy-1-methyl-1-(thiazol-2-yl)-5-(2,2,2-trifluoroethyl)-1,2,3,4,4a,5-hexahydrodipyrido[1,2-b:2′,1′-f][1,2,4]triazine-6,8-dione]",> 8100 nM
6,"CC1(c2nccs2)CCCC2N(CC(F)(F)F)C(=O)c3c(O)c(=O)ccn3N21 (single isomer, unassigned) [Compound 41B, 7-hydroxy-1-methyl-1-(thiazol-2-yl)-5-(2,2,2-trifluoroethyl)-1,2,3,4,4a,5-hexahydrodipyrido[1,2-b:2′,1′-f][1,2,4]triazine-6,8-dione]",11.1 nM
7,"CC1(c2ccccc2)CCCC2N(CC3CC4(CCC4)C3)C(=O)c3c(O)c(=O)ccn3N21 (single isomer, unassigned) [Compound 42A, 7-hydroxy-1-methyl-1-phenyl-5-(spiro[3.3]heptan-2-ylmethyl)-1,2,3,4,4a,5-hexahydrodipyrido[1,2-b:2′,1′-f][1,2,4]triazine-6,8-dione]",> 8100 nM
8,"CC1(c2ccccc2)CCCC2N(CC3CC4(CCC4)C3)C(=O)c3c(O)c(=O)ccn3N21 (single isomer, unassigned) [Compound 42B, 7-hydroxy-1-methyl-1-phenyl-5-(spiro[3.3]heptan-2-ylmethyl)-1,2,3,4,4a,5-hexahydrodipyrido[1,2-b:2′,1′-f][1,2,4]triazine-6,8-dione]",49.5 nM
9,"CC1CC2N(C)C(=O)c3c(O)c(=O)ccn3N2C(C)(c2ccccc2)C1 (single isomer, unassigned) [Compound 43A, 7-hydroxy-1,3,5-trimethyl-1-phenyl-1,2,3,4,4a,5-hexahydrodipyrido[1,2-b:2′,1′-f][1,2,4]triazine-6,8-dione]",1170 nM
10,"CC1CC2N(C)C(=O)c3c(O)c(=O)ccn3N2C(C)(c2ccccc2)C1 (single isomer, unassigned) [Compound 43B, 7-hydroxy-1,3,5-trimethyl-1-phenyl-1,2,3,4,4a,5-hexahydrodipyrido[1,2-b:2′,1′-f][1,2,4]triazine-6,8-dione]",1100 nM
11,"CC1CC2N(C)C(=O)c3c(O)c(=O)ccn3N2C(C)(c2ccccc2)C1 (single isomer, unassigned) [Compound 43C, 7-hydroxy-1,3,5-trimethyl-1-phenyl-1,2,3,4,4a,5-hexahydrodipyrido[1,2-b:2′,1′-f][1,2,4]triazine-6,8-dione]",14.1 nM
12,"CC1CC2N(C)C(=O)c3c(O)c(=O)ccn3N2C(C)(c2ccccc2)C1 (single isomer, unassigned) [Compound 43D, 7-hydroxy-1,3,5-trimethyl-1-phenyl-1,2,3,4,4a,5-hexahydrodipyrido[1,2-b:2′,1′-f][1,2,4]triazine-6,8-dione]",7.8 nM
13,"Cc1cccnc1C1(C)CCCC2N(CC(F)(F)F)C(=O)c3c(O)c(=O)ccn3N21 (single isomer, unassigned) [Compound 44A, 7-hydroxy-1-methyl-1-(3-methylpyridin-2-yl)-5-(2,2,2-trifluoroethyl)-1,2,3,4,4a,5-hexahydrodipyrido[1,2-b:2′,1′-f][1,2,4]triazine-6,8-dione]",> 8100 nM
14,"Cc1cccnc1C1(C)CCCC2N(CC(F)(F)F)C(=O)c3c(O)c(=O)ccn3N21 (single isomer, unassigned) [Compound 44B, 7-hydroxy-1-methyl-1-(3-methylpyridin-2-yl)-5-(2,2,2-trifluoroethyl)-1,2,3,4,4a,5-hexahydrodipyrido[1,2-b:2′,1′-f][1,2,4]triazine-6,8-dione]",15.2 nM
15,"CC1(c2ccccc2)CCCC2N(CC3CC(F)(F)C3)C(=O)c3c(O)c(=O)ccn3N21 (single isomer, unassigned) [Compound 45A, 5-((3,3-difluorocyclobutyl)methyl)-7-hydroxy-1-methyl-1-phenyl-1,2,3,4,4a,5-hexahydrodipyrido[1,2-b:2′,1′-f][1,2,4]triazine-6,8-dione]",> 8100 nM
16,"CC1(c2ccccc2)CCCC2N(CC3CC(F)(F)C3)C(=O)c3c(O)c(=O)ccn3N21 (single isomer, unassigned) [Compound 45B, 5-((3,3-difluorocyclobutyl)methyl)-7-hydroxy-1-methyl-1-phenyl-1,2,3,4,4a,5-hexahydrodipyrido[1,2-b:2′,1′-f][1,2,4]triazine-6,8-dione]",10.6 nM
17,"CN1C(=O)c2c(O)c(=O)ccn2N2C1CCCC2(C)c1ncc(F)cc1F (single isomer, unassigned) [Compound 46A, 1-(3,5-difluoropyridin-2-yl)-7-hydroxy-1,5-dimethyl-1,2,3,4,4a,5-hexahydrodipyrido[1,2-b:2′,1′-f][1,2,4]triazine-6,8-dione]",40.3 nM
18,"CN1C(=O)c2c(O)c(=O)ccn2N2C1CCCC2(C)c1ncc(F)cc1F (single isomer, unassigned) [Compound 46B, 1-(3,5-difluoropyridin-2-yl)-7-hydroxy-1,5-dimethyl-1,2,3,4,4a,5-hexahydrodipyrido[1,2-b:2′,1′-f][1,2,4]triazine-6,8-dione]",> 8100 nM
19,"CC1(c2ncc(F)cc2F)CCCC2N(CC(F)F)C(=O)c3c(O)c(=O)ccn3N21 (single isomer, unassigned) [Compound 47A, 5-(2,2-difluoroethyl)-1-(3,5-difluoropyridin-2-yl)-7-hydroxy-1-methyl-1,2,3,4,4a,5-hexahydrodipyrido[1,2-b:2′,1′-f][1,2,4]triazine-6,8-dione]",25.7 nM
20,"CC1(c2ncc(F)cc2F)CCCC2N(CC(F)F)C(=O)c3c(O)c(=O)ccn3N21 (single isomer, unassigned) [Compound 47B, 5-(2,2-difluoroethyl)-1-(3,5-difluoropyridin-2-yl)-7-hydroxy-1-methyl-1,2,3,4,4a,5-hexahydrodipyrido[1,2-b:2′,1′-f][1,2,4]triazine-6,8-dione]",4380 nM
21,"Cc1ccc(C2(C)CCCC3N(CC(F)(F)F)C(=O)c4c(O)c(=O)ccn4N32)nc1 (single isomer, unassigned) [Compound 49A, 7-hydroxy-1-methyl-1-(5-methylpyridin-2-yl)-5-(2,2,2-trifluoroethyl)-1,2,3,4,4a,5-hexahydrodipyrido[1,2-b:2′,1′-f][1,2,4]triazine-6,8-dione]",> 8100 nM
22,"Cc1ccc(C2(C)CCCC3N(CC(F)(F)F)C(=O)c4c(O)c(=O)ccn4N32)nc1 (single isomer, unassigned) [Compound 49B, 7-hydroxy-1-methyl-1-(5-methylpyridin-2-yl)-5-(2,2,2-trifluoroethyl)-1,2,3,4,4a,5-hexahydrodipyrido[1,2-b:2′,1′-f][1,2,4]triazine-6,8-dione]",26.5 nM
23,"Cc1ccnc(C2(C)CCCC3N(CC(F)(F)F)C(=O)c4c(O)c(=O)ccn4N32)c1 (single isomer, unassigned) [Compound 50A, 7-hydroxy-1-methyl-1-(4-methylpyridin-2-yl)-5-(2,2,2-trifluoroethyl)-1,2,3,4,4a,5-hexahydrodipyrido[1,2-b:2′,1′-f][1,2,4]triazine-6,8-dione]",> 8100 nM
24,"Cc1ccnc(C2(C)CCCC3N(CC(F)(F)F)C(=O)c4c(O)c(=O)ccn4N32)c1 (single isomer, unassigned) [Compound 50B, 7-hydroxy-1-methyl-1-(4-methylpyridin-2-yl)-5-(2,2,2-trifluoroethyl)-1,2,3,4,4a,5-hexahydrodipyrido[1,2-b:2′,1′-f][1,2,4]triazine-6,8-dione]",9 nM
25,"CN1C(=O)c2c(O)c(=O)ccn2N2C1CCCC2(C)c1cccc(OC(F)F)c1 (single isomer, unassigned) [Compound 51A, 1-(3-(difluoromethoxy)phenyl)-7-hydroxy-1,5-dimethyl-1,2,3,4,4a,5-hexahydrodipyrido[1,2-b:2′,1′-f][1,2,4]triazine-6,8-dione]",> 8100 nM
26,"CN1C(=O)c2c(O)c(=O)ccn2N2C1CCCC2(C)c1cccc(OC(F)F)c1 (single isomer, unassigned) [Compound 51B, 1-(3-(difluoromethoxy)phenyl)-7-hydroxy-1,5-dimethyl-1,2,3,4,4a,5-hexahydrodipyrido[1,2-b:2′,1′-f][1,2,4]triazine-6,8-dione]",16.3 nM
27,"CC1(c2cc(C(F)(F)F)ccn2)CCCC2N(CC3(C(F)(F)F)CC3)C(=O)c3c(O)c(=O)ccn3N21 (single isomer, unassigned) [Compound 52A, 7-hydroxy-1-methyl-5-((1-(trifluoromethyl)cyclopropyl)methyl)-1-(4-(trifluoromethyl)pyridin-2-yl)-1,2,3,4,4a,5-hexahydrodipyrido[1,2-b:2′,1′-f][1,2,4]triazine-6,8-dione]",114 nM
